Measurements: the supplement of paper PMC11451515

System: P12-Ichikawa
Experiment: cell viability relative to DMSO control; higher = less cytotoxic
Settings: 48 h
In short: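 Leukemia cells (NOMO1 or SEM, 500 cells/well; P12-Ichikawa, 1000 cells/well) were seeded in 5 μl in 1536-well plates after at least four passages of adaptation to each medium. They received library compounds in DMSO by pin dosing, 11 threefold points from 47 μM to 0.79 nM. Luminescence with CellTiter-Glo One was read after 48 h at 37°C. Viability is stated per plate relative to DMSO wells, with cell-free wells as background.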

[1] = HPLM + 10% dialyzed FBS, 0.000781 µM
[2] = HPLM + 10% dialyzed FBS, 0.00234 µM
[3] = HPLM + 10% dialyzed FBS, 0.00702 µM
[4] = HPLM + 10% dialyzed FBS, 0.0211 µM
[5] = HPLM + 10% dialyzed FBS, 0.0632 µM
[6] = HPLM + 10% dialyzed FBS, 0.19 µM
[7] = HPLM + 10% dialyzed FBS, 0.569 µM
[8] = HPLM + 10% dialyzed FBS, 1.71 µM
[9] = HPLM + 10% dialyzed FBS, 5.12 µM
[10] = HPLM + 10% dialyzed FBS, 15.4 µM
[11] = HPLM + 10% dialyzed FBS, 46.1 µM
[12] = RPMI 5 mM glucose + 10% FBS, 0.000781 µM
[13] = RPMI 5 mM glucose + 10% FBS, 0.00234 µM
[14] = RPMI 5 mM glucose + 10% FBS, 0.00702 µM
[15] = RPMI 5 mM glucose + 10% FBS, 0.0211 µM
[16] = RPMI 5 mM glucose + 10% FBS, 0.0632 µM
[17] = RPMI 5 mM glucose + 10% FBS, 0.19 µM
[18] = RPMI 5 mM glucose + 10% FBS, 0.569 µM
[19] = RPMI 5 mM glucose + 10% FBS, 1.71 µM
[20] = RPMI 5 mM glucose + 10% FBS, 5.12 µM
[21] = RPMI 5 mM glucose + 10% FBS, 15.4 µM
[22] = RPMI 5 mM glucose + 10% FBS, 46.1 µM
[23] = RPMI 5 mM glucose + 10% dialyzed FBS, 0.000781 µM
[24] = RPMI 5 mM glucose + 10% dialyzed FBS, 0.00234 µM
[25] = RPMI 5 mM glucose + 10% dialyzed FBS, 0.00702 µM
[26] = RPMI 5 mM glucose + 10% dialyzed FBS, 0.0211 µM
[27] = RPMI 5 mM glucose + 10% dialyzed FBS, 0.0632 µM
[28] = RPMI 5 mM glucose + 10% dialyzed FBS, 0.19 µM
[29] = RPMI 5 mM glucose + 10% dialyzed FBS, 0.569 µM
[30] = RPMI 5 mM glucose + 10% dialyzed FBS, 1.71 µM
[31] = RPMI 5 mM glucose + 10% dialyzed FBS, 5.12 µM
[32] = RPMI 5 mM glucose + 10% dialyzed FBS, 15.4 µM
[33] = RPMI 5 mM glucose + 10% dialyzed FBS, 46.1 µM

Row | SMILES | cell viability [1] | cell viability [2] | cell viability [3] | cell viability [4] | cell viability [5] | cell viability [6] | cell viability [7] | cell viability [8] | cell viability [9] | cell viability [10] | cell viability [11] | cell viability [12] | cell viability [13] | cell viability [14] | cell viability [15] | cell viability [16] | cell viability [17] | cell viability [18] | cell viability [19] | cell viability [20] | cell viability [21] | cell viability [22] | cell viability [23] | cell viability [24] | cell viability [25] | cell viability [26] | cell viability [27] | cell viability [28] | cell viability [29] | cell viability [30] | cell viability [31] | cell viability [32] | cell viability [33]
1 | CN(C)[C@H]\1[C@@H]2C[C@H]3C(=C(O)\[C@]2(O)C(=O)\C(=C1O)C(N)=O)/C(=O)C4=C(O)C=CC=C4[C@@]3(C)O | 113% | 115% | 114% | 115% | 113% | 116% | 114% | 111% | 114% | 108% | 93.9% | 112% | 103% | 109% | 116% | 118% | 110% | 114% | 107% | 115% | 92.8% | 98.8% | 114% | 101% | 114% | 111% | 116% | 116% | 111% | 104% | 105% | 97.5% | 97%
2 | CC(C)NC[C@@H](C(=O)N1CCN(c2ncnc3c2[C@H](C)C[C@H]3O)CC1)c1ccc(Cl)cc1 | 118% | 120% | 114% | 109% | 100% | 99.5% | 92.8% | 83% | 67% | 48.2% | 28.1% | 109% | 105% | 111% | 107% | 100% | 85.8% | 71.3% | 65.2% | 52.8% | 44.4% | 33.6% | 112% | 109% | 114% | 115% | 103% | 95.3% | 85.2% | 78.1% | 55.5% | 37.2% | 23.5%
3 | C[S+]([O-])(=O)C1=CC=C(C=C1)C/2=C(/C(=O)OC2)C3=CC=CC=C3 | 113% | 120% | 112% | 122% | 126% | 126% | 117% | 125% | 123% | 125% | 122% | 108% | 125% | 112% | 115% | 124% | 133% | 141% | 135% | 134% | 132% | 131% | 107% | 120% | 115% | 110% | 123% | 120% | 120% | 118% | 125% | 121% | 109%
4 | C=C(C)[C@H]1Cc2c(ccc3c2O[C@@H]2COc4cc(OC)c(OC)cc4[C@@H]2C3=O)O1 | 101% | 108% | 107% | 111% | 95.9% | 118% | 90.6% | 76.5% | 56.1% | 19.7% | 17.7% | 108% | 113% | 104% | 106% | 88.2% | 99.5% | 73.6% | 60.3% | 44.3% | 17.3% | 10.1% | 98.6% | 106% | 110% | 107% | 102% | 95.7% | 76.6% | 69.3% | 59.9% | 34% | 24.1%
5 | CC[C@H](C)[N]1C=C(C)C2=C1C=C(C=C2C(=O)NC\C3=C(C)\C=C(\C)NC3=O)C4=CC=C(N=C4)N5CCNCC5 | 109% | 116% | 114% | 115% | 115% | 122% | 116% | 117% | 114% | 118% | 109% | 104% | 116% | 117% | 118% | 117% | 113% | 126% | 129% | 117% | 125% | 106% | 103% | 107% | 108% | 113% | 115% | 114% | 116% | 132% | 115% | 108% | 93.1%
6 | C=C[C@H]1CN2CC[C@H]1C[C@H]2[C@H](O)c1ccnc2ccc(OC)cc12 | 100% | 98.6% | 93.6% | 104% | 96.3% | 100% | 104% | 105% | 108% | 110% | 100% | 95.9% | 104% | 99.4% | 95.7% | 93.6% | 101% | 106% | 109% | 129% | 111% | 75.4% | 89.9% | 89% | 91.7% | 93.1% | 96.3% | 96.7% | 94.1% | 95.3% | 102% | 101% | 81%
7 | C[N]1C=C(C2=C1C=CC=C2)\C3=C(\C(=O)NC3=O)C4=C5CC(CN)CC[N]5C6=C4C=CC=C6 (stereo not given) | 103% | 105% | 106% | 113% | 98% | 116% | 110% | 108% | 106% | 84.2% | 60.3% | 97.2% | 108% | 101% | 111% | 90.5% | 117% | 120% | 115% | 94.6% | 66.2% | 45% | 119% | 116% | 119% | 113% | 113% | 129% | 129% | 119% | 109% | 83.4% | 45.7%
8 | CC/1=C(/N2[C@H](SC1)[C@H](NC(=O)[C@H](N)\C3=C\C\C=C/C3)C2=O)C(O)=O | 96.8% | 117% | 116% | 121% | 126% | 115% | 111% | 126% | 128% | 120% | 113% | 99.5% | 91.8% | 110% | 116% | 103% | 120% | 117% | 119% | 120% | 124% | 122% | 111% | 112% | 116% | 112% | 118% | 118% | 118% | 117% | 125% | 133% | 125%
9 | CC(C)C(=O)Oc1ccc(CO)cc1[C@H](CCN(C(C)C)C(C)C)c1ccccc1 | 92% | 87.1% | 89.2% | 85.3% | 90.1% | 99% | 75.7% | 69.3% | 86.2% | 76.8% | 81.8% | 81.1% | 82.5% | 85.6% | 83.4% | 83.2% | 83.9% | 86.1% | 84.9% | 81.5% | 80.7% | 83.4% | 78.9% | 76.3% | 82.9% | 80.1% | 87% | 84.2% | 79.7% | 78.8% | 77.1% | 73.1% | 78.1%
10 | Cc1cc2c(F)c(Oc3ncnn4cc(OC[C@@H](C)O)c(C)c34)ccc2[nH]1 | 115% | 105% | 102% | 106% | 111% | 106% | 97.2% | 97.5% | 96.9% | 73.9% | 52% | 97.7% | 107% | 101% | 98.1% | 101% | 109% | 104% | 99% | 98.8% | 80.7% | 55.8% | 102% | 100% | 97.3% | 101% | 104% | 102% | 95.7% | 97.8% | 90.1% | 79.3% | 52.3%
11 | O=C(O)C1=NC(C(=O)O)CC(/C=C/N2c3cc(O)c(OC4OC(CO)C(O)C(O)C4O)cc3CC2C(=O)O)=C1 (stereo not given) | 104% | 107% | 104% | 96.9% | 98.5% | 104% | 106% | 102% | 96.8% | 98% | 98.4% | 97.2% | 110% | 106% | 99.1% | 95.8% | 89.9% | 90.8% | 106% | 96.5% | 96.8% | 97.4% | 101% | 99.2% | 106% | 102% | 106% | 104% | 93.2% | 99.5% | 100% | 91.9% | 90.9%
12 | CCC[C@H]1C[C@H](C(=O)N[C@@H]([C@@H]2O[C@@H](SC)[C@@H](O)[C@@H](O)[C@H]2O)[C@H](C)Cl)N(C)C1 | 103% | 117% | 115% | 120% | 119% | 124% | 123% | 124% | 125% | 118% | 127% | 105% | 113% | 112% | 121% | 132% | 131% | 137% | 119% | 130% | 130% | 134% | 113% | 122% | 115% | 115% | 128% | 124% | 126% | 119% | 130% | 122% | 121%
13 | COc1ccc(C(C)=O)c(O)c1 | 100% | 106% | 115% | 109% | 109% | 114% | 117% | 102% | 107% | 24% | 31% | 115% | 115% | 106% | 120% | 128% | 117% | 114% | 112% | 116% | 22% | 30.6% | 103% | 109% | 109% | 104% | 110% | 114% | 114% | 99.9% | 110% | 25.8% | 25.4%
14 | OC[C@H]1OCC(O1)[N@@]2C=CC(N)=NC2=O (stereo not given in full) | 121% | 118% | 113% | 121% | 112% | 118% | 117% | 107% | 115% | 108% | 115% | 108% | 125% | 117% | 118% | 118% | 117% | 118% | 107% | 104% | 101% | 103% | 116% | 121% | 115% | 109% | 114% | 113% | 109% | 106% | 105% | 104% | 105%
15 | FC1=CC=C(SC/2=N/N3\C=N/C(=O)/C(=C3/C=C2)C4=C(Cl)C=CC=C4Cl)C(=C1)F | 100% | 104% | 114% | 108% | 114% | 102% | 117% | 114% | 114% | 94.9% | 33.6% | 105% | 101% | 95.7% | 108% | 106% | 104% | 106% | 98.6% | 93.4% | 66.2% | 24.8% | 96.4% | 104% | 110% | 104% | 107% | 107% | 105% | 120% | 105% | 86% | 38.1%
